Experimental data from patent publication US20030003583A1, “Regulation of transgene expression following AAV transduction” (priority 2001, published 2003).
Residues, ends and D or L forms follow the SMILES beside them. *: point of attachment. Cbz = O=C(OCc1ccccc1)*

Assays:
proteasome = conditions: cited from earlier work
[1] = test system: human type B synoviocytes infected with rAAV(mIL-10); assay: Mouse IL-10 transgene expression (ELISA of supernatants) in human type B synoviocytes infected with rAAV(mIL-10); format: cell-based
Method: Synoviocytes were infected with rAAV on day 0. On day 1, cells were exposed to the indicated amounts of zLLL for 24 hours. Supernatants were harvested on days 3 and 7 and assayed by ELISA for mouse IL-10.
Synoviocytes were infected with rAAV on day 0. At various times (indicted by the arrows), some cells were exposed to 40 μM of zLLL for 24 hours (A) or to recombinant adenovirus lacking a transgene (B). Supernatants were harvested and assayed by ELISA for mouse IL-10.
Kwon, C. Mah, and A. Srivastava. 2000. Impaired intracellular trafficking of adeno-associated virus type 2 vectors limits efficient transduction of murine fibroblasts. J Virol 74:992-996) to determine whether human synoviocytes could be made to express a transgene following AAV-mediated gene transfer. […] This is inconsistent with the proposed mechanism of action of zLLL, that of increasing viral trafficking to the nucleus, as transgene expression should be stable once the viral genome reaches the nucleus and sufficient second strand synthesis occurs.
To further explore this finding, synovial cells were re-exposed to zLLL following the loss of transgene expression. […] In each case, expression peaked 2-3 days following exposure to zLLL and then dropped off. We were able to re-induce transgene expression as far out as 25 days after infection. We have not yet looked at further time points, but we can already conclude that the transgene persists in the synoviocytes for an extended period of time and that its expression can be regulated by zLLL.
This is inconsistent with the proposed mechanism of action of zLLL, that of increasing viral trafficking to the nucleus, as transgene expression should be stable once the viral genome reaches the nucleus and sufficient second strand synthesis occurs.
To further explore this finding, synovial cells were re-exposed to zLLL following the loss of transgene expression. […] In each case, expression peaked 2-3 days following exposure to zLLL and then dropped off. We were able to reinduce transgene expression as far out as 25 days after infection. We have not yet looked at further time points, but we can already conclude that the transgene persists in the synoviocytes for an extended period of time and that its expression can be regulated by zLLL.

[2] = test system: human type B synoviocyte cultures infected with rAAV(mIL-4); assay: Real-time PCR of transgene mRNA in human type B synoviocytes infected with rAAV(mIL-4); format: cell-based; conditions: 40 μM zLLL for 24 hours
Method: Human type B synoviocyte cultures were infected with rAAV(mIL-4). Ten days later, some cells were exposed to 40 μM of zLLL for 24 hours. Cells were harvested and RNA was extracted, reverse transcribed, and subjected to real-time PCR using a LightCycler™ System (Roche Molecular Biochemicals, Indianapolis, Ind.) with the FastStart DNA Master SYBR Green I reaction mix and gene specific primers. LIGHTCYCLER Quantification Software v5.32 was used to compare amplification in the samples during the log-linear phase. Data are normalized to the AAV(mIL-4) samples, which are given a value of 1. The ZLLL group was not infected with AAV (IL-4).
Synoviocytes transduced with AAV(mIL-4) were exposed to zLLL and RNA was extracted and subjected to real-time PCR. zLLL induced a 250-fold increase in mIL-4 mRNA with no increase in the constituitively-expressed gene, GAPDH (FIG. 4).

[3] = test system: RA synovium implanted into SCID mice; assay: Luciferase expression in RA synovium implanted into SCID mice, injected with AAV(Luc), after in vivo zLLL; conditions: zLLL into the synovial tissue or intraperitoneally two weeks after AAV(Luc); tissue removed 48 hours later
Method: RA synovium was implanted into SCID mice. Two weeks later, synovial tissues were injected with 6.8×10^10 particles of AAV(Luc). Two weeks following rAAV administration, zLLL was administered in a 100 μl volume either directly into the synovial tissue or intraperitoneally. Synovial tissues were removed 48 hours later, homogenized, and assayed for luciferase content.
The optimal in vivo dose and route of administration is unclear from this preliminary study and will be addressed in the proposed experiments.

other cell types = conditions: cited from earlier work
mouse lungs = conditions: in vivo; cited from earlier work

Structure (SMILES): CC(=O)N[C@@H](CSC(=O)[C@]1([C@@H](O)C(C)C)NC(=O)[C@H](C)[C@@H]1O)C(=O)O [Lactacystin]
- specificity for the proteasome / other proteases inhibited (proteasome): high specificity for the proteasome

Structure (SMILES): CC(C)C[C@@H](C=O)NC(=O)[C@H](CC(C)C)NC(=O)[C@H](CC(C)C)NC(=O)OCc1ccccc1 [zLLL, Carbobenzoxyl-L-leucyl-L-leucyl-L-leucinal] (Cbz-Leu-Leu-Leu-aldehyde)
- transgene expression on re-exposure after loss of expression ([1]; 40 μM zLLL for 24 hours at various times): could be repeatedly induced
- expression of a mouse IL-10 transgene ([1]; 3 days following infection with rAAV, zLLL for 24 hours on day 1, dose dependent): dramatically enhanced
- expression of mouse IL-10 transgene by day 7 ([1]; day 7 after infection, single 24 h zLLL exposure on day 1): expression was lost
- latest time after infection at which transgene expression was re-induced ([1]; days after infection): 25 days
- time of peak expression following exposure ([1]; following each exposure to zLLL): 2 to 3 days
- change in constitutively expressed gene GAPDH mRNA [2]: no increase
- increase in mIL-4 mRNA ([2]; ten days after infection, normalized to AAV(mIL-4) samples): 250 fold
- in vivo transgene (luciferase) expression [3]: dramatically enhanced
- nuclear accumulation of rAAV particles and the rAAV genome (other cell types): increase nuclear accumulation
- rAAV-mediated transduction in mouse lungs (mouse lungs): enhance rAAV-mediated transduction
- specificity for the proteasome / other proteases inhibited (proteasome): can also inhibit certain lysosomal cysteine proteases and the calpains
